A word on the half-life: it is the time in which the quantity being followed falls by half.

Each structure is given as a SMILES string.

This note sets out measurements from PubChem BioAssay AID1508591.

For this series the following is noted: rat; liver microsomes; pH 7.4; 15.0 min; 1.0 µM.
The molecule `O=S(=O)(Nc1ccc(-c2ccccc2)cc1)c1ccc(NCc2cccc(Cl)c2O)cc1` came in with a half-life of 5.6 min.
As for `Cc1ccc(S(=O)(=O)Nc2ccc(F)cc2C(=O)Nc2nc(-c3ccccc3)cs2)cc1`, the figure is 3 min; as for `Cc1cc(NS(=O)(=O)c2ccc(NC(=O)Cc3ccc(Cl)c(F)c3)cc2)no1`, greater than 30 min; as for `N#Cc1cccc(Nc2ncc(-c3cccc4ccccc34)o2)c1`, greater than 30 min.
In turn, `Cc1cccc(S(=O)(=O)Nc2cnccc2C(=O)Nc2nc(-c3ccccc3)cs2)c1` showed a half-life of 6 min.
Molecule `CC1(C)C(=O)NC2=C1C(=O)C(=O)c1ccccc12` had a half-life greater than 30 min.
As for `CCN(CC)S(=O)(=O)c1cccc(C(=O)Nc2ccc(C#N)cc2)c1`, the figure is 3.8 min.
Then `CCc1oc2ccccc2c1C(=O)c1cc(I)c(O)c(I)c1`, with 13.7 min; and `O=C(Cc1ccc(Cl)c(Cl)c1)Nc1ccc([S+](=O)([O-])Nc2ccccn2)cc1`, with 8.3 min.
As for `Cc1cccc(CNc2ccc(S(=O)(=O)Nc3nccs3)cc2)c1O`, the figure is 21 min; as for `O=C(/C=C/c1cn(CC(O)CN2CCCCCC2)c2ccccc12)c1ccc(Br)cc1` (stereo not drawn), 24.2 min; as for `FC(F)(F)c1ccc(CN2CCNc3cc(Nc4ccccc4)ncc3C2)cc1`, 17.3 min.
Turning to `O=C(NCCCNc1nc(Nc2cccc(NC(=O)N3CCCC3)c2)ncc1I)c1cccs1`, the half-life is 1.87 min.
Then `Cc1ccc(S(=O)(=O)N2CCN(C(=O)c3cc4c(s3)CCC4)CC2)cc1`, with 1.58 min.
As for `Fc1ccc(-c2ccc(Nc3nc(-c4ccncc4)nc4ccccc34)cc2F)cc1`, the half-life was greater than 30 min.
`Nc1ccccc1CNc1ccc(S(=O)(=O)Nc2nccs2)cc1` came in with a half-life greater than 30 min.
`O=C(O)c1ccc(O)c2ncc(N3CCCN(CCc4cccc5ccccc45)CC3)cc12`: the half-life is greater than 30 min.
Then `C#CCNC(=O)c1nc(-c2ccc(Cl)nc2)c2ccccn12`, with 24 min.
As for `COc1cccc(Nc2nc(-c3ccncc3)nc3ccccc23)c1`, the figure is 4.3 min; as for `N#Cc1cnc(NS(=O)(=O)c2ccc(NC(=O)Cc3ccc(F)c(Cl)c3)cc2)s1`, greater than 30 min.
Then `Cn1nnnc1Sc1ncnc2sccc12`, with greater than 30 min; and `CC1=C[C@@H](CN2C(=O)C(C)=C(C)C2=O)[C@H](C(C)C)C[C@H]1Cc1nc2c(C)cccc2[nH]1`, with 1.3 min; and `CC(C)c1ccc(OCc2nc3c(n2Cc2ccccc2)C(=O)N(CC2CC2)CCN3)cc1`, with 1.82 min.
With `CC(C)Oc1cccc(-c2ccnc(N3CCC(C(N)=O)CC3)n2)c1`, the half-life was found to be 11.6 min.
As for `CCCCOc1ccc(C2c3c(oc4ccc(C)cc4c3=O)C(=O)N2CCCN(C)C)cc1OCC` (stereo not drawn), the figure is 25.9 min; as for `COc1cccc(CNc2ccc([S+](=O)([O-])Nc3ccccc3)cc2)c1Cl`, 2.4 min; as for `CCOc1ccc(CCNC(=O)c2cc3sccc3n2CCN(C)C)cc1OCC`, 1.6 min.
Then `CCCCn1cc2c(c1-c1ccc(Br)cc1)c(=O)n(C)c(=O)n2C`, with 7.68 min; and `Cc1cccc(N2CCN(C(=O)Cn3ncc4c3-c3ccccc3OC4)CC2)c1C`, with 2.76 min; and `Cc1ccc(S(=O)(=O)Nc2ccc(OC(F)(F)F)cc2C(=O)Nc2nc(-c3ccccc3)cs2)cc1`, with 24 min.
For `O=C1Nc2ccccc2/C1=C/c1cccc(C(=O)O)c1`, the half-life was greater than 30 min.
As for `Cc1cnc(-c2ccccc2C(C)C)nc1NCC1CCN(c2cccnc2)C1` (stereo not drawn), the figure is 2.87 min; as for `COC(=O)c1ccc(O)c2ncc(N3CCN(C)CC3)cc12`, 4.16 min; as for `COc1cccc2c1CCCC2CCCN1CCN(C2CCCCC2)CC1` (stereo not drawn), 3.39 min.
In turn, `O=c1cc(CSc2ccc(Cl)cc2)nc(-c2ccccn2)[nH]1` returned a half-life of 1.52 min.
Then `Cc1ccnc(N=C(N)N2CCN(c3cccc(C(F)(F)F)c3)CC2)c1`, with 2.26 min.
With `O=C(c1ccc2c(c1)ncn2-c1cccc(Cl)c1)N1CCCCC1`, the half-life was found to be 5.83 min. This half-life lies about 2.6-fold higher than the previous one.
In turn, `CC(C)(C)c1ccc(C(=O)N2CC(=O)Nc3ccc(F)cc3C2c2ccc(F)cc2)cc1` (stereo not drawn) had a half-life of 8.57 min.
As for `CC(=O)c1c(C)c(C(=O)Nc2cccc([S+](=O)([O-])N(C)C)c2)n(C)c1C`, the figure is 15 min; as for `COc1ccc(CCn2c(N)cc(=O)[nH]c2=S)cc1OC`, greater than 30 min; as for `Cc1ccc2[nH]c(-c3ccccc3)cc(=O)c2c1`, 15.9 min.
As for `CC(=O)c1c(C)[nH]c(C(=O)Nc2ccc(C)c(S(=O)(=O)Nc3ccc(Br)cc3)c2)c1C`, the figure is 19 min.
Then `CC(C)NC(=O)N1C[C@@H]2C[C@H](C1)c1ccc(-c3cccc(C(F)(F)F)c3)c(=O)n1C2`, with 12.5 min; and `CC(=O)c1ccc(N[S+](=O)([O-])c2cccc(NC(=O)c3[nH]c(C)c(C(C)=O)c3C)c2)cc1`, with 21 min; and `CC(C)c1ccc(CC(=O)N2CCCc3ncc(C(=O)Nc4cccnc4)cc32)cc1`, with 5.67 min.
`CSc1cccc(NC(=O)CC[C@H]2O[C@@H]3O[C@]4(C)CC[C@H]5[C@H](C)CC[C@@H]([C@@H]2C)[C@@]35OO4)c1` displayed a half-life of 2.3 min.
For the molecule `CN(C)c1cccc(-c2nccc(N3CCC(C(N)=O)CC3)n2)c1`, the half-life amounted to 8.43 min.
Then `Cc1ccc(S(=O)(=O)Nc2ccccc2C(=O)Nc2ncc(-c3ccccc3)o2)cc1`, with 3.5 min; and `Cc1cn2c(N)c(Cl)cc(C(=O)NCC3CCN(CC(C)C)CC3)c2n1`, with greater than 30 min.
As for `Cc1ccc(-c2nn(C(C)(C)C)c3ncnc(N)c23)cc1`, the figure is 4.87 min; as for `COCCn1ccc2c(C3=CCOCC3)nc(-c3cccc(NC(C)=O)c3)cc21`, greater than 30 min.
Then `Cc1nc(Nc2n[nH]c3c2CN(C(=O)N[C@H](CN(C)C)c2ccccc2)C3(C)C)c2sccc2n1`, with 21.9 min; and `O=C1Nc2ccc(C(=O)c3ccco3)cc2/C1=C/c1cc(Cl)c(O)c(Cl)c1`, with 7.7 min.
For `O=C(CCCN1CCC(n2c(=O)[nH]c3ccccc32)CC1)c1ccc(F)cc1`, the half-life is 10.9 min. The half-life values of the last two molecules are within 1.5-fold of each other.
Then `C[S+](=O)([O-])c1ccc(-c2nc(C(=O)N3CCOCC3)n3ccccc23)cc1`, with greater than 30 min; and `CC(C)c1ccccc1-c1ncc(F)c(NC(C)(C)c2ccc(-c3cccnc3)cc2)n1`, with 2.3 min; and `O=C(Nc1nc(-c2ccccc2)cs1)c1ccncc1NS(=O)(=O)c1ccc(F)c(F)c1`, with 11 min.
Then `Cc1nn(CCc2nc(-c3ccc4ccccc4c3)cs2)c2[nH]c(=O)cc(C(F)(F)F)c12`, with 6.4 min; and `CCOC(=O)C1CCN(C(=O)C2(NC(=O)Nc3ccc(F)cc3F)CCCCC2)CC1`, with 2.7 min; and `O=C(Nc1cccc(C(F)(F)F)c1)c1cc2nc(-c3ccccc3)cc(C(F)(F)F)n2n1`, with greater than 30 min.
`COc1cccc(NC(=O)c2cccc3c(=O)c4c([nH]c23)CCCC4)c1` showed a half-life of 16.3 min.
The molecule `Cc1sc2c(c1C)C(c1ccc(Cl)cc1)=N[C@@H](CC(=O)Nc1ccc(OCCOCCOCCOCCNc3cccc4c3C(=O)N(C3CCC(=O)NC3=O)C4=O)cc1)c1nnc(C)n1-2` (stereo partly drawn) had a half-life of 1.26 min.
In the case of `Cc1cc(-c2nc(Nc3ccc(F)c(F)c3)c3ccccc3n2)ccn1`, the half-life was found to be 22 min.
`CC1(C)CCC(CN2CCN(c3ccc(C(=O)NS(=O)(=O)c4ccc(NCC5CCOCC5)c([N+](=O)[O-])c4)c(Oc4cnc5[nH]ccc5c4)c3)CC2)=C(c2ccc(Cl)cc2)C1` yielded a half-life greater than 30 min.
Then `COc1ccc(C2c3[nH]c4ccc(OC)cc4c3CCN2C(=O)Nc2ccccc2)cc1` (stereo not drawn), with 25.7 min.
`CCCCCCCCc1ccc(CCC(N)(CO)CO)cc1` came in with a half-life greater than 30 min.
As for `CC(=O)N1CCc2c(sc3c2c(=O)n(-c2ccccc2)c(=O)n3CC(=O)c2ccccc2)C1`, the figure is greater than 30 min.
As for `Clc1ccc2ncc(-c3cccc(NC4CCNC4)n3)n2c1` (stereo not drawn), the figure is 21.8 min.
Then `Cc1c(-c2cccc3c(CCCOc4cccc5ccccc45)c(C(=O)O)n(Cc4cccnc4)c23)c(COc2ccc(N3CCN([S+](=O)([O-])N(C)C)CC3)cc2)nn1C`, with 12 min; and `CC(C)c1ccc(OCc2nc3c(n2Cc2ccccc2)C(=O)N(CC2CCOCC2)CCN3)cc1`, with 1.68 min.
As to `CN(C)c1ccc(-c2cc[nH]c(=O)c2N)cc1`, the half-life is greater than 30 min.
Then `O=C(NC[C@H]1Cn2c(-c3ccc(Cl)cc3)cnc2CO1)C1CCCC1`, with greater than 30 min; and `CC(=O)N1CCN(c2ccc(OCc3nn(C)c(C)c3-c3cccc4c(CCCOc5cccc6ccccc56)c(C(=O)O)n(Cc5cccnc5)c34)cc2)CC1`, with 15 min; and `COc1cc2ncnc(Oc3cccc(NC(=O)Nc4cc(C(C)(C)C(F)(F)F)on4)c3)c2cc1OC`, with greater than 30 min.
On to `COc1cccc(CNCCSc2nnnn2C)c1OCc1ccc(Cl)cc1Cl`, for which the half-life is 1.35 min.
The molecule `Cc1cnc(-c2ccccc2C(F)F)nc1NCc1ccc(-c2cccnc2)cc1` registered a half-life of 8.1 min. Against the preceding molecule, the half-life is about 6-fold higher.
As for `CCc1ccc(NC(=O)CSC2=Nc3ccccc3C3=NC(CC(=O)NCc4ccc5c(c4)OCO5)C(=O)N23)cc1` (stereo not drawn), the figure is 2.86 min.
Take `C=CCc1ccc(O)c(-c2ccc(O)c(CC=C)c2)c1`: the half-life worked out at 2.36 min.
As to `Cc1cnc(SCc2ccccn2)nc1C1CCCN(C(=O)c2scc3c2CCCC3)C1` (stereo not drawn), the half-life came out at 1.01 min.
Then `CC(C)C(=O)Nc1cccc(NC(=O)c2cc3ccccc3o2)c1`, with 28 min; and `NC(=O)C1CCN(c2nc(-c3ccc4c(c3)OCCO4)cs2)CC1`, with 3.09 min; and `CC(=O)Nc1nc(C)c(-c2ccc(Cl)c(S(=O)(=O)NCCO)c2)s1`, with greater than 30 min.
`CN1CCN(Cc2ccc(-c3ccc(C(C)(C)C#N)cc3)nc2)CC1` had a half-life of 24.6 min.
`COc1cccc(CNc2ccc([S+](=O)([O-])Nc3cc4ccccc4s3)cc2)c1O` came in with a half-life of 3.5 min. This half-life is about 7-fold lower than that of the molecule before.
Then `O=C(NC1CCCc2c1[nH]c1ccc(Cl)cc21)c1ccncc1` (stereo not drawn), with greater than 30 min; and `COc1cc(-c2cn(C)c(=O)c3cnccc23)c(OC)cc1CN(C)C`, with greater than 30 min; and `CCCN1C(CC(C)C)=NS(=O)(=O)c2cc(NC(=O)c3ccco3)ccc21`, with 9.21 min.
As for `CN(C)c1cccc(-c2ncc(F)c(N3CCC(C(N)=O)CC3)n2)c1`, the figure is 2.08 min.
